Results on five molecules are retold here after patent US20020127717A1, “Preparation of replicating macrophages and use in diagnosis and therapy” (priority 2000, published 2002).

The target in assay [1] is T1, Ulex Europaeus-I Agglutimin (UEA-I) (Ulex europaeus, UniProt P22972).
T1 construct: purchased Vector Laboratories, Inc
T1 sequence (P22972 1-243): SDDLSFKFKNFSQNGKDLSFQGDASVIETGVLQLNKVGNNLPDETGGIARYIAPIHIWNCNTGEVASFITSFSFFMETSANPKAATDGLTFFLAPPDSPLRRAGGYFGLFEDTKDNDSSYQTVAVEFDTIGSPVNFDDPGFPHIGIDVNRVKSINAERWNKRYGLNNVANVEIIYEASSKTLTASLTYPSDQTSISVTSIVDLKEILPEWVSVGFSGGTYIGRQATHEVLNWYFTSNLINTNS
Briefly: FITC-UEA-I lectin binding to acetone-fixed cells, specificity control. The conditions noted are these: 0.2M, room temperature, 30 minutes preincubation. Here is the method: FITC-conjugated Ulex Europaeus-I Agglutimin (UEA-I) (Vector Laboratories, Inc.) was incubated with acetone-fixed cells at 37° C. for 1 hour. The specificity of UEA-I, the lectin was determined by preincubating with 0.2M […] (Sigma), at room temperature for 30 minutes.

The test system of assay [2] is human Kupffer cell isolates (KC-1, KC-2, KC-3). Briefly: DNA synthesis assay (3H-Thymidine), stimulation by growth factors, Kupffer cell isolates. The format is cell-based. Further details: key to Stimulation Index of Cultured Target cells: ratio: uptake with stimulatory agent / uptake in medium alone. The conditions noted are these: for effect on DNA synthesis of KC isolates (in words): KC isolates grown 21 days in MCG medium, summary of Table 3. Here is the method: (§1) DNA Synthesis Assay: DNA synthesis was determined by culturing the cells with ^3H-Thymidine as is standard in the art. The KC isolates used in the assay were at day 21 post liver isolation. The normal endothelial cells and foreskin fibroblasts were cultured in media consisting of RPMI-1640, fetal bovine serum 20% supplemented with specific factors as described in Nakamura S and Salahuddin SZ, Science 242: 426-430,1988. KC isolates were cultured as described above. Cells were harvested between 4 hours and 18 hours culture depending on the stimulatory agent used. A stimulation index was calculated by dividing radioactivity incorporated into cells with the stimulatory agent versus cells in culture medium alone.
(§2) Various growth factors were tested for their ability to stimulate growth of the human Kupffer cell isolates (KC-3) and other cell types. KC isolates used in this experiment were grown in culture for 21 days with MCG medium.

The subject of assay [3] is Bovine Capillary Endothelial Cells (BCE). As to the kind of experiment: DNA synthesis assay (3H-Thymidine), stimulation by growth factors, BCE. It is filed as cell-based. Here is the method:
as §1
(§3) Cultured Cells: Human umbilical vein endothelial cells (HUV-E) were prepared as described in Nakamura et al, Science 1988. Bovine capillary endothelial cells (BCE) were a gift from Dr. Peter Biberfeld of Karolinska Institute, Stockholm, Sweden. Normal human foreskin fibroblasts (HSF) were obtained from the American Type Tissue Culture Collection (ATCC), Rockville, Md. (CRL-1635).
as §2

For assay [4], the system named is human Kupffer cell isolates (KC-1, KC-2, KC-3). Briefly: DNA synthesis assay (3H-Thymidine), stimulation by growth factors, Kupffer cell isolates. It is filed as cell-based. Further details: key: ratio: uptake with stimulatory agent / uptake in medium alone.
Assay [5] concerns Human Foreskin Fibroblast Cells (HSF). As to the kind of experiment: DNA synthesis assay (3H-Thymidine), stimulation by growth factors, HSF. It is filed as cell-based. The conditions noted are these: HFS. As for the experimental part: as §1, §3, §2
Assay [6] deals with Human Umbilical Vein Endothelial Cells (HUV-E). Briefly: DNA synthesis assay (3H-Thymidine), stimulation by growth factors, HUVE. It is filed as cell-based. Here is the method:
as §1, §3, §2

Turning to `O=C(CO)[C@H](O)[C@@H](O)[C@@H](O)CO` [L-fructose], the “binding of UEA-I after preincubating the lectin” value in assay [1] was “No binding was observed”.
Take “BFGF: bFGF = Fibroblast Growth Factor β, Lot # 14765800, Boehringer Manheim”: in assay [2], the “effect on DNA synthesis of KC isolates (in words)” value (from here on “effect on DNA synthesis”) is on record as “little to no effect”. The “Stimulation Index of Cultured Target cells” value (“Stimulation Index” below) in assay [2] (KC-3, HC (hydrocortisone) +) was 1.2; in assay [2] (KC-3, HC (hydrocortisone) −) it was 1.2; in assay [3] (HC (hydrocortisone) +), 2.3; in assay [3] (HC (hydrocortisone) −), 6.2; in assay [4] (KC-1, HC (hydrocortisone) +), 0.5; in assay [4] (KC-1, HC (hydrocortisone) −) it was 0.8. The “Stimulation Index” value in assay [4] (KC-2, HC (hydrocortisone) +) is listed as 0.5; in assay [4] (KC-2, HC (hydrocortisone) −) it was 0.6; in assay [5] (HC (hydrocortisone) +), 1.9; in assay [5] (HC (hydrocortisone) −), 2.2; in assay [6] (HC (hydrocortisone) +), 15.4; in assay [6] (HC (hydrocortisone) −), 35.4.
Regarding EGF: epidermal growth factor, the “effect on DNA synthesis” value in assay [2] is given as “little to no effect”. Besides, the “Stimulation Index” value in assay [2] (KC-3, HC (hydrocortisone) +) stood at 0.6; in assay [2] (KC-3, HC (hydrocortisone) −), 1.2; in assay [3] (HC (hydrocortisone) +), 2.9; in assay [3] (HC (hydrocortisone) −) it was 6.8; in assay [4] (KC-1, HC (hydrocortisone) +), 0.9; in assay [4] (KC-1, HC (hydrocortisone) −), 1.2. Further, the “Stimulation Index” value in assay [4] (KC-2, HC (hydrocortisone) +) came to 0.9; in assay [4] (KC-2, HC (hydrocortisone) −), 1.1; in assay [5] (HC (hydrocortisone) +) it was 1.1; in assay [5] (HC (hydrocortisone) −) it was 2.8; in assay [6] (HC (hydrocortisone) −), 25.4.
Consider PDGF, for which the “effect on DNA synthesis” value in assay [2] is “little to no effect”. Besides, the “Stimulation Index” value stood at 1.1 in assay [2] (KC-3, HC (hydrocortisone) +); 1.4 in assay [2] (KC-3, HC (hydrocortisone) −); 1.8 in assay [3] (HC (hydrocortisone) +); 4.4 in assay [3] (HC (hydrocortisone) −); 1.1 in assay [4] (KC-1, HC (hydrocortisone) +); 1.2 in assay [4] (KC-1, HC (hydrocortisone) −). Also, the “Stimulation Index” value in assay [4] (KC-2, HC (hydrocortisone) +) was found to be 1.2; in assay [4] (KC-2, HC (hydrocortisone) −), 1.4; in assay [5] (HC (hydrocortisone) +) it was 1.5; in assay [5] (HC (hydrocortisone) −), 1.4; in assay [6] (HC (hydrocortisone) +), 20.2; in assay [6] (HC (hydrocortisone) −) it was 10.0.
TNFα: the “Stimulation Index” value in assay [2] (KC-3, HC (hydrocortisone) +) came to 1.2; in assay [3] (HC (hydrocortisone) +), 1.2; in assay [4] (KC-1, HC (hydrocortisone) +), 0.8; in assay [4] (KC-2, HC (hydrocortisone) +) it was 0.9; in assay [5] (HC (hydrocortisone) +), 0.8; in assay [6] (HC (hydrocortisone) +), 1.0.
